Laboratory results reported in US20080220449A1, “Biomarkers and assays for Alzheimer's disease” (OLIGOMERIX, INC., priority 2007, published 2008).
Entries after “also recorded” stand apart in the source; their conditions may differ.

Experiments:
soluble tau oligomer = experiment: Modified ELISA (mAb HT7 capture, biotinylated mAb HT7 reporter) for curcumin effect on tau-oligomer levels in CSF; format: biochemical, human
Description: FIG. 6 is a schematic diagram illustrating an exemplary method and assay that utilizes standard and modified ELISA to detect tau-monomer, tau pT217, soluble tau oligomer, and tau-amyloid-beta 1-42 complex. Formation of tau oligomers was analyzed using two different ELISA methods to provide verified data. The “modified” ELISA uses the same monoclonal antibody for capture and detection. Insoluble aggregates are removed in the ELISA procedure during washing steps. Only soluble aggregates of tau, not monomers, are detected with this ELISA because the detection and reporter antibody recognizes an epitope which is present only once within tau. […]
Modified ELISA to determine tau-oligomer levels in CSF: Tau oligomer level was determined using modified sandwich ELISA where mAb HT7 against tau was used for capture and biotinylated mAb HT7 as the reporter. […]
Sample preparation: A 5 mM stock solution of curcumin was prepared in 100% ethanol. […] The incubated samples were diluted to 500 μL in buffer and analyzed for tau-oligomers by modified ELISA as described in FIG. 6. […]
(§1) Data analysis for Example 11 (FIG. 13) and Example 12 (FIG. 14) was measured as a percent decrease in tau-oligomers, upon incubation with curcumin. […]
(§2) FU=(Average fluorescence of triplicate wells for each sample-average fluorescence of the antibody blank wells). […]

[1] = molecular target: T1, tau oligomers containing tau without c-terminal truncation (Homo sapiens, UniProt P10636); experiment: ELISA with mAb T46 capture and pAb A11 reporter for curcumin effect on tau-oligomer levels in CSF; format: biochemical; settings: same CSF sample from a patient having severe AD; sample preparation as in Example 11
T1 construct: only tau oligomers containing tau without c-terminal truncation would be detected; from tissue; host or cells: cerebrospinal fluid of a severe AD patient (post mortem, New York Brain Bank)
Description: Tau oligomer levels based on oligomer conformation was determined using a standard sandwich ELISA where mAb HT7 against tau was used for capture, as mentioned in FIG. 2 (Example 1). After incubation with CSF samples (see FIG. 2 legend) the plates were washed and 100 uL rabbit pAb A11, specific for protein oligomer conformation, was diluted 1000-fold and added to each well. The plate was incubated for one hour at 37° C. and washed. Biotinylated goat anti-rabbit antibody was diluted 10,000-fold in PBST and 50 μL was added to each well. Plates were incubated for 30 min. at 37° C. Detection was done using HRP-neutravidin and QuantaBlu fluorogenic substrate as described for FIG. 2 (Example 1). The results are shown in FIG. 8 (4 severe AD, 5 AD and 3 non-AD CSF samples were tested). Here the assay is specific for tau in association with oligomer conformation and can detect soluble tau oligomers. The combination of a monoclonal antibody against tau with an antibody specific for oligomer conformation is novel. […]
Tau oligomer levels in CSF were determined using antibodies specific for oligomer conformation and tau with intact c-terminus. […]
as §1, §2

T1 sequence (P10636 1-441 isoform P10636-8): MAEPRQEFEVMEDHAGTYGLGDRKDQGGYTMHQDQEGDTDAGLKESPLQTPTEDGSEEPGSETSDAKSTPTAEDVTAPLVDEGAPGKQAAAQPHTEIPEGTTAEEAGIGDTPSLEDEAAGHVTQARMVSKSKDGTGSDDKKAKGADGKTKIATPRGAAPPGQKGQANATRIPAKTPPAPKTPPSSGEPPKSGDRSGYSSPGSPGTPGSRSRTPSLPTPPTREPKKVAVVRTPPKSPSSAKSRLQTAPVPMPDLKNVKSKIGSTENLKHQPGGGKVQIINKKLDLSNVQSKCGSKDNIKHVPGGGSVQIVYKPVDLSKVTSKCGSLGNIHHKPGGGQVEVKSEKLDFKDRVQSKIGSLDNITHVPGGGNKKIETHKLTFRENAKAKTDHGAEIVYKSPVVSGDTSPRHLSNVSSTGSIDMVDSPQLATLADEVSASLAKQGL

COc1cc(/C=C/C(=O)CC(=O)/C=C/c2ccc(O)c(OC)c2)ccc1O [curcumin] was tested, and the “percent decrease in tau-oligomers upon incubation with curcumin (FIG. 13)” value (soluble tau oligomer; CSF from three different severe AD patients, 5 uL of 20 uM curcumin in total volume of 100 uL, one hour at 37° C.) was “disruption of soluble tau oligomer; also recorded: reduction of tau oligomer levels”, the “percent decrease in tau-oligomers upon incubation with curcumin (FIG. 14, modified ELISA format)” value (soluble tau oligomer; one CSF sample from a patient having severe AD, sample preparation as in Example 11) was “reduction of tau oligomer levels” and the “percent decrease in tau-oligomers upon incubation with curcumin (FIG. 14, mAb T46 / pAb A11 format)” value [1] was “reduction of tau oligomer levels”.
